This note sets out measurements from ChEMBL document CHEMBL1158226, “Comparative study of the vasodilatory effects of three quinazoline alkaloids isolated from Evodia rutaecarpa” (J Nat Prod, 1996).

The test system of assay [1] is Aorta. The experiment in a line: Vasodilatory activity in Sprague-Dawley rat thoracic aortic ring assessed as inhibition of potassium chloride-induced contraction. The class given is functional, tissue-based.
In assay [2] the test system is Aorta. The experiment in a line: Vasodilatory activity in Sprague-Dawley rat endothelium-intact thoracic aortic ring assessed as inhibition of phenylephrine-induced contraction at 0.1 to 100 uM. Format: functional.
The test system of assay [3] is Aorta. The experiment in a line: Vasodilatory activity in endothelium-denuded Sprague-Dawley rat thoracic aortic ring assessed as inhibition of phenylephrine-induced contraction preincubated with L-NAME for 10 mins. Format: functional, tissue-based.
A short description of assay [4]: Binding affinity to DHP binding site of L-type calcium channel by radioligand binding assay.
Assay [5] deals with Aorta. The assay can be described thus: Vasodilatory activity in Sprague-Dawley rat endothelium-intact thoracic aortic ring assessed as inhibition of phenylephrine-induced contraction. The class given is functional, tissue-based.
Assay [6] relates to Aorta. The assay can be described thus: Vasodilatory activity in endothelium-denuded Sprague-Dawley rat thoracic aortic ring assessed as inhibition of phenylephrine-induced contraction preincubated with TEA for 1 hr. Format: functional, tissue-based.
Assay [7] has as its system Aorta. The assay can be described thus: Vasodilatory activity in Sprague-Dawley rat endothelium-denuded thoracic aortic ring assessed as inhibition of phenylephrine-induced contraction. The class given is functional, tissue-based.
Assay [8] deals with Aorta. The experiment in a line: Vasodilatory activity in Sprague-Dawley rat endothelium-denuded thoracic aortic ring assessed as inhibition of phenylephrine-induced contraction at 0.1 to 100 uM. Format: functional.
Assay [9] is described as follows: Antagonist activity at 5-HT receptor in Sprague-Dawley rat endothelium denuded thoracic aorta assessed as inhibition of 5HT-induced contraction. Format: functional, tissue-based.
Assay [10] concerns Aorta. The experiment in a line: Vasodilatory activity in Sprague-Dawley rat endothelium-intact thoracic aortic ring assessed as inhibition of phenylephrine-induced contraction at 100 uM. The class given is functional. Set-up: scale not given: the % may be the effect or the level left.
Assay [11] deals with T1, Adrenergic receptor alpha-1 (Rattus norvegicus, UniProt P15823+P23944+P43140).
T1 sequence (P15823 whole entry): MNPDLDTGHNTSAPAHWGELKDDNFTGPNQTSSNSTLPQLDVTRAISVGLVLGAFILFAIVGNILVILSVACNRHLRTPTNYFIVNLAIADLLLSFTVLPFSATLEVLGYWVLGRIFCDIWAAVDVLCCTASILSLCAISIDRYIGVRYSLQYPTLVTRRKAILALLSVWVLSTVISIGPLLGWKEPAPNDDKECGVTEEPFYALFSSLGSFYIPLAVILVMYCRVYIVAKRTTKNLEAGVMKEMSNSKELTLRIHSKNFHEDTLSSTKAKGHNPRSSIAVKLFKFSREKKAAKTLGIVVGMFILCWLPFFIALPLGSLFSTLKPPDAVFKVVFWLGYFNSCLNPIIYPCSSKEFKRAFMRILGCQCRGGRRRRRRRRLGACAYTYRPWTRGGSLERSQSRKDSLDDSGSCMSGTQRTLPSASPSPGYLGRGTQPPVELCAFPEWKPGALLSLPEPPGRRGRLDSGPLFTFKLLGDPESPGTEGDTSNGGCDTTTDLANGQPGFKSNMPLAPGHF
T1 sequence (P23944 whole entry): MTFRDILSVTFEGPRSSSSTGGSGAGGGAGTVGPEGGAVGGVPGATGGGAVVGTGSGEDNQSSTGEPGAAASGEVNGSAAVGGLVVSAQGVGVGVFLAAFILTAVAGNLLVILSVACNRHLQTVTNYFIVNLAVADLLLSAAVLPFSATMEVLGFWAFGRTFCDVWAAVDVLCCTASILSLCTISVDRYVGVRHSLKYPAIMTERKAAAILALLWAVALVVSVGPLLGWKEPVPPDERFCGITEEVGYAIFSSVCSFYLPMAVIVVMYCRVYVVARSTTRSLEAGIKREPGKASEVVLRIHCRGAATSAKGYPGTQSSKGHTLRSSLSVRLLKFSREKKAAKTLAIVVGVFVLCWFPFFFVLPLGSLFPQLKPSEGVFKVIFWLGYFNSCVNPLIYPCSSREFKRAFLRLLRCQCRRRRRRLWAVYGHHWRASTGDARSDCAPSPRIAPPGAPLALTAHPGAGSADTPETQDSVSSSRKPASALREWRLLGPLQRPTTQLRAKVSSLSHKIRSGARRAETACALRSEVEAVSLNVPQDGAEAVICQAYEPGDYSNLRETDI
T1 sequence (P43140 whole entry): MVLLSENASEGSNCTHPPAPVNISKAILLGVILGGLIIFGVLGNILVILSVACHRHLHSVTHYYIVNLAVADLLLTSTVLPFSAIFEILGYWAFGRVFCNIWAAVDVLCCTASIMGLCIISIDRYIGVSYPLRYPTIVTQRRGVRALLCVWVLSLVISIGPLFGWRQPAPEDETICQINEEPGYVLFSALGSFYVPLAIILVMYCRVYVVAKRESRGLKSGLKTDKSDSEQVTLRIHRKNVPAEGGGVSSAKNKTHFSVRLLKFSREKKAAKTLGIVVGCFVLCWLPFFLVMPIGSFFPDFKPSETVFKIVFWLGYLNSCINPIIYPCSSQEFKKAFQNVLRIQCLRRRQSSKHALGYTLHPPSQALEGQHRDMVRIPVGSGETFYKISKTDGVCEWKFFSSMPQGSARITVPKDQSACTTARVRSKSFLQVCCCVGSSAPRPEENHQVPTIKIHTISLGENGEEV
The experiment in a line: Displacement of [3H]prazosin from alpha1 adrenoceptor in rat heart membrane. Format: cell membranes.

The nature of assay [12]: Antagonist activity at alpha-adrenoceptor in Sprague-Dawley rat endothelium denuded thoracic aorta assessed as inhibition of phenylephrine-induced contraction. Format: functional, tissue-based.
Assay [13] in a line: Binding affinity to DHP binding site of L-type calcium channel at > 100 uM by radioligand binding assay.
Assay [14] concerns Aorta. The experiment in a line: Vasodilatory activity in endothelium-denuded Sprague-Dawley rat thoracic aortic ring assessed as inhibition of phenylephrine-induced contraction in absence of L-NAME. Format: functional, tissue-based.

Each structure is given as a SMILES string. Activity calls are given as the source filed them. No cut-off for these calls is given here.

For the molecule `CN1c2ccccc2C(=O)N2CCc3c([nH]c4ccccc34)[C@@H]21` [EVODIAMINE], the outcome in [1] and in assay [6] was Active. Also, the Emax in assay [2] is 100%; in [8], 49.8%. Also, the EC50 in assay [3] was determined as 2920 nM; in [5], 930 nM; in assay [7], 8140 nM. In addition, the result in assay [4] was inactive. For the same molecule, in [9], the pA2 was 6.25.
For the molecule `O=c1c2ccccc2nc2n1CCc1c-2[nH]c2ccccc12` [RUTAECARPINE], the Emax was determined as 96% in [2] and 23% in assay [8]. For the same molecule, in assay [4], the outcome was inactive. The results for the EC50 in assay [5] and in [7] were 1050 nM and 1750 nM, respectively. Besides, in assay [10], the Activity was 72%. For the same molecule, the outcome in assay [6] was Active.
In assay [11], `C[n+]1c2n(c(=O)c3ccccc31)CCc1c-2[nH]c2ccccc12` [DEHYDROEVODIAMINE] returned a Ki of 2400 nM. Besides, the Emax in assay [2] and in assay [8] was 100% throughout. Besides, the EC50 was 5830 nM in assay [3], 1600 nM in assay [14], 1640 nM in assay [5] and 7780 nM in assay [7]. For the same molecule, the pA2 in assay [12] stood at 6.89. The outcome in assay [13] and in [6] was Active.
